Assay results published in paper PMC6539072, “Diclofenac-Derived Hybrids for Treatment of Actinic Keratosis and Squamous Cell Carcinoma” (Molecules, 2019).
Entries after “also recorded” stand apart in the source; their conditions may differ.

How the values were obtained:
[1] = system: EGF-stimulated HaCaT cells; experiment: Neutral Red cell viability assay on EGF-stimulated HaCaT cells (actinic keratosis model); type: cell-based, human; settings: for potency relative to diclofenac (native drugs): ratio of IC50 values on EGF-stimulated HaCaT
Method: (§1) The immortalized human keratinocyte (HaCaT) cells and human squamous carcinoma (A431) cells (Sigma-Aldrich, Milan, Italy) were cultured in RPMI 1640 (Euroclone, Milan, Italy) supplemented with 10% fetal bovine serum (FBS), 100 U/mL penicillin, and 100 μg/mL streptomycin (Euroclone) at 37 °C in a humidified atmosphere containing 5% CO2.
HaCaT cells under the proliferative stimulus of EGF were used as model of actinic keratosis (AK), a precancerous disease that can progress in cutaneous squamous cell carcinoma (cSCC), according to the critical role played by the EGFR/Fyn/Src/Erk pathway for promoting cSCC formation. Cells were stimulated with EGF at the concentration 5 ng/mL for whole time of treatment with test compounds (see below).
(§2) Both HaCaT (EGF-stimulated) and A431 cells were incubated for 72 h with the test compounds at concentrations in the range 0.1–100 μM.
(§3) Cell viability was measured using the Neutral Red (NR) Assay (N2889, Sigma-Aldrich, Darmstadt, Germany) as previously reported. HaCaT and A431 cell lines were seeded at a density of 5 × 10^4 cells/well in 10% FBS medium in a 96-well plate. After 24 h, test compounds, dissolved in DMSO, were diluted in sterile culture medium supplemented with EGF (HaCaT cells) or 1% FBS (A431 cells) and added into the well plate. […] Diclofenac, HT, T and hybrids 1–4 were tested. After 72 h from treatment, NR was added and cells incubated for 2 h. At the end of the incubation period, cells were washed with PBS and, then, incubated for 10 min with a NR solubilisation solution (1% acetic acid in 50% ethanol). The absorbance was measured at 540 nm using the Infinite M200 NanoQuant instrument (Tecan, Salzburg, Austria). Optical density values from vehicle-treated cells were considered as 100% cell viability.

[2] = system: A431 cells; experiment: Neutral Red cell viability assay on A431 squamous carcinoma cells; type: cell-based, human; settings: for IC50: neutral red, 0.1–100 μM, NR: not reached
Method: as §1, §2, §3

[3] = In vitro cutaneous permeation through pig ear skin (Gummer-type diffusion cells); type: in vitro ADME; settings: measured as hybrid 1 in receiving phase; 24 h
Description: Porcine ears skin, obtained from freshly sacrificed animals in a local slaughterhouse, was used as model. After cleaning with depurated water, full-thickness skin was removed with a scalpel from the cartilage of the outer region. The excised pig ear skin was carefully deprived of the adhering fat and subcutaneous tissue. Prior to the experiments, the pig hairs were abscised and the skin was gently washed. The skin with a thickness about 1.46 ± 0.06 mm was placed in the Gummer-type diffusion cells with the stratum corneum facing the donor compartment and an available diffusion area of […]. […]
The concentration of diclofenac and hybrid 1 in receiving fluids and in the skin samples was selectively determined by HPLC. […]
Linear regression analysis of pseudo steady state diffusion plots allowed calculation of the following parameters: steady-state flux (J, nmols/cm^2·h), given by Q/At, where Q is the amount of permeant diffusing across area A in time t; lag time (h), indicating the time taken by the drug to saturate the membrane and reach the receiving phase, calculated from the X-axis intercept values of the regression lines and the amount of drug permeated at the end of the experiment (Q24h, nmols).

[4] = no reference given; cited from earlier work
[5] = EGF-stimulated HaCaT (5 ng/mL EGF), 72 h, neutral red, 0.1–100 μM, NR: not reached
[6] = Homo sapiens, EGF-stimulated HaCaT (5 ng/mL EGF), 72 h, neutral red, 0.1–100 μM, NR: not reached
[7] = Homo sapiens, A-431, A431, 72 h

IC50 [2, 7] [µM] | Molecule | IC50 [1, 6] [µM] | also measured
13.5 ± 2.49 | O=C(Cc1ccccc1Nc1c(Cl)cccc1Cl)OCCc1ccc(O)c(O)c1 [hybrid 1, 3,4-Dihydroxyphenethyl 2-(2-((2,6-dichlorophenyl)amino)phenyl)acetate] | 3.71 ± 1.08 | potency relative to diclofenac (native drugs) [1]: about 20 fold; IC50 in A431 relative to IC50 in EGF-stimulated HaCaT ([2]; A431 vs EGF-stimulated HaCaT): about 4 fold; Flux [3]: did not permeate across the skin; melting point: 123 to 125 °C
32 ± 1.05 | O=C(O)Cc1ccccc1Nc1c(Cl)cccc1Cl [diclofenac] | 67.1 ± 1.94 | –

Continued, molecule first:

Molecule | IC50 [2, 7] [µM] | IC50 [1, 6] [µM] | also measured
OCCc1ccc(O)cc1 [T, tyrosol, reference compound] | > 100 | > 100 | IC50 ± SEM [1, 5]: not reached
OCCc1ccc(O)c(O)c1 [HT, hydroxytyrosol, reference compound] | > 100 | 72.3 ± 3.58 | –
O=C(CCCOC(=O)Cc1ccccc1Nc1c(Cl)cccc1Cl)OCCc1ccc(O)c(O)c1 [hybrid 3, 3,4-Dihydroxyphenethyl 4-(2-(2-((2,6-dichlorophenyl)amino)phenyl)acetoxy)butanoate] | 30.7 ± 1.33 | 17.8 ± 1.09 | –
O=C(O)Cc1ccccc1Nc1c(Cl)cccc1Cl [diclofenac sodium] | – | – | partition coefficient n-octanol/water, log POW [4]: 4.98
3-Hydroxyphenethyl 2-(2-((2,6-dichlorophenyl)amino)phenyl)acetate [hybrid 2] | – | – | IC50 [1, 5]: 16.1 ± 1.15 µM; potency relative to diclofenac (native drugs) [1]: 4 fold; IC50 ([2]; A431, 72 h): 27.5 ± 1.24 µM
O=C(CCCOC(=O)Cc1ccccc1Nc1c(Cl)cccc1Cl)OCCc1ccc(O)cc1 [hybrid 4, 4-Hydroxyphenethyl 4-(2-(2-((2,6-dichlorophenyl)amino)phenyl)acetoxy)butanoate] | > 100 | > 100 | effect on cell viability (in words) ([1]; EGF-stimulated HaCaT, 72 h): antiproliferative effect lower than that of diclofenac; also recorded: not able to induce modification in cell viability; effect on cell viability (in words) ([2]; A431, 72 h): not able to induce modification in cell viability
